Reference: patent US12331051B2 (priority 2021, dated 2025)
“Also recorded” adds a separate entry of the source. Like-named read-outs stand apart in the source and are kept apart here.

Columns and labels:
D2 dopamine receptor = D2 dopamine receptor (Homo sapiens, UniProt P14416); assay: BRET-based G protein dissociation assay; assay type: cell-based
D3 dopamine receptor = D3 dopamine receptor (Homo sapiens, UniProt P35462); assay: BRET-based G protein dissociation assay; assay type: cell-based
D4 dopamine receptor = target: T1, D4 dopamine receptor (Homo sapiens, UniProt P21917); assay: BRET-based G protein dissociation assay; assay type: cell-based
T1 sequence (P21917 1-419): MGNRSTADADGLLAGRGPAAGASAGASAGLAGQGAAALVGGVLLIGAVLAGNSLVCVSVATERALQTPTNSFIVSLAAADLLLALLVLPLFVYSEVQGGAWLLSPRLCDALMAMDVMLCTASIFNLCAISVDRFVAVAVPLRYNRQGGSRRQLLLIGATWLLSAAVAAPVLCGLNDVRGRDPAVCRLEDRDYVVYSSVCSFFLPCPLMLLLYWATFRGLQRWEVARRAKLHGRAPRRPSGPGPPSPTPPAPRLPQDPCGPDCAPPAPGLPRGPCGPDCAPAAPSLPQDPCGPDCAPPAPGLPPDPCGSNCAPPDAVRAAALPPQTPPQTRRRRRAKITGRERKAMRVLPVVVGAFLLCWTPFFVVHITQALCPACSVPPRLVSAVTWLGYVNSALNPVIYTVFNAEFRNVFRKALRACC

[1] = target: H2 histaminergic receptor (Homo sapiens, UniProt P25021); assay: BRET-based G protein dissociation assay; assay type: cell-based
H2 histaminergic receptor, sequence (P25021 whole entry): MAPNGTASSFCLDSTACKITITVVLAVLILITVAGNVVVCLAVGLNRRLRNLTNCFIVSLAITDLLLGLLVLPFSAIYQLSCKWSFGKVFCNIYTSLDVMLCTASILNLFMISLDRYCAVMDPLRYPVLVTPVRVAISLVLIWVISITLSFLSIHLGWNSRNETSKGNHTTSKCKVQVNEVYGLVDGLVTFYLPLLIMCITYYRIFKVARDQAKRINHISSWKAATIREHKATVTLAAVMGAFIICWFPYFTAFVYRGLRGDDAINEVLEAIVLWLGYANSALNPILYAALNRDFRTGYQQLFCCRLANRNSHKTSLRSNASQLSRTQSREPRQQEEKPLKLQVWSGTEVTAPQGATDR

[2] = target: H4 histaminergic receptor (Homo sapiens, UniProt Q9H3N8); assay: BRET-based G protein dissociation assay; assay type: cell-based
H4 histaminergic receptor, sequence (Q9H3N8 whole entry): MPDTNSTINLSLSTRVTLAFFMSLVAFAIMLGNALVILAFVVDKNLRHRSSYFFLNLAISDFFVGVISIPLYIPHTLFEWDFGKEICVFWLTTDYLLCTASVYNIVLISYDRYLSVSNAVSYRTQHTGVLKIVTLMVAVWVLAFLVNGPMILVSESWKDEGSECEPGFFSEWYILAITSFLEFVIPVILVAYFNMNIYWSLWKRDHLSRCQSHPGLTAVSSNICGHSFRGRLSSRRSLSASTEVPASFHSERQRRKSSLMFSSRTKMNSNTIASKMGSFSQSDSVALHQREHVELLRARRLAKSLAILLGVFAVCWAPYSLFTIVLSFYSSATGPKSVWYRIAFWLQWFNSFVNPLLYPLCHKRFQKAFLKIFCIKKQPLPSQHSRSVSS

[3] = target: CHRM1 (M1 muscarinic receptor) (Homo sapiens, UniProt P11229); assay: BRET-based G protein dissociation assay; assay type: cell-based
CHRM1 (M1 muscarinic receptor), sequence (P11229 whole entry): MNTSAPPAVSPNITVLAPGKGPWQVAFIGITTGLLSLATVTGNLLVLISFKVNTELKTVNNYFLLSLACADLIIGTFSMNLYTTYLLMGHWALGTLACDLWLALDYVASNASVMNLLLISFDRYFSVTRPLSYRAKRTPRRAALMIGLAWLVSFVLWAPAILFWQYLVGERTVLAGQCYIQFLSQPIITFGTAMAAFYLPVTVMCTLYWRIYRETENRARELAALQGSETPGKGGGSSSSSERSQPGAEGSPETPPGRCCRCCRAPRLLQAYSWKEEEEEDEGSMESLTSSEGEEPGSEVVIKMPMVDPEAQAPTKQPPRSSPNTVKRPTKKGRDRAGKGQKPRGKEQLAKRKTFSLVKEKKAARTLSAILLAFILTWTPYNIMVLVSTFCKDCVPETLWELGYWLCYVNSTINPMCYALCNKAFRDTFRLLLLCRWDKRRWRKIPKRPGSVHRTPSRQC

[4] = target: CHRM2 (M2 muscarinic receptor) (Homo sapiens, UniProt P08172); assay: BRET-based G protein dissociation assay; assay type: cell-based
CHRM2 (M2 muscarinic receptor), sequence (P08172 whole entry): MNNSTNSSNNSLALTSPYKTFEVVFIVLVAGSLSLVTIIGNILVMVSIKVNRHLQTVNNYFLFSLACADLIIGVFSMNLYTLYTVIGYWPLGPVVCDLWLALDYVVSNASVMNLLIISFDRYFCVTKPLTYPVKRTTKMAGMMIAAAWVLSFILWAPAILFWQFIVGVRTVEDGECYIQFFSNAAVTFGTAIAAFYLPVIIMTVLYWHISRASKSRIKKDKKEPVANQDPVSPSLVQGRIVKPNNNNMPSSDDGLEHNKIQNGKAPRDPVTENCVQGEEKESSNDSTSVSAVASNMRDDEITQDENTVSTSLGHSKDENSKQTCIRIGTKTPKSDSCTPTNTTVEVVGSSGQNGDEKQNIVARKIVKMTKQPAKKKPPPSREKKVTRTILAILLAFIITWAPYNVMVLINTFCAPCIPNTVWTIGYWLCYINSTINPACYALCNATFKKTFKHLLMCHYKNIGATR

[5] = target: T2, CHRM4 (M4 muscarinic receptor) (Homo sapiens, UniProt P08173); assay: BRET-based G protein dissociation assay; assay type: cell-based
T2 sequence (P08173 1-479): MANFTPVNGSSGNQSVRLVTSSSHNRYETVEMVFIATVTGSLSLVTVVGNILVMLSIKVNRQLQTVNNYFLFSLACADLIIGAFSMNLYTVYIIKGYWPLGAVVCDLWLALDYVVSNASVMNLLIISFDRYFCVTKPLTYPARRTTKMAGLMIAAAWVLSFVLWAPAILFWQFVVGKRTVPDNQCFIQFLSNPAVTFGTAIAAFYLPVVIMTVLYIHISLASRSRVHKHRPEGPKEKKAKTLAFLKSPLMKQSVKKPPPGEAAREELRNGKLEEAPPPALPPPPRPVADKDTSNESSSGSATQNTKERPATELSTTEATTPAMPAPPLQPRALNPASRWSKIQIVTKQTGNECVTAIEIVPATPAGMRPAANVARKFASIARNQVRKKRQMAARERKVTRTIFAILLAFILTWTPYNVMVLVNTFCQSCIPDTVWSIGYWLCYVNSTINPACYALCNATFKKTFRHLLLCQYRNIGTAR

male C57BL/6J mice = assay: Head-twitch response (HTR) mouse model; assay type: in vivo
Method: The HTR mouse model is widely used as a proxy behavioral assay for hallucinogenic activity in humans [Halbertstad et al., Neuropharmacology, 2020, V167: 107933; Halberstadt et. al., Psychopharmacology (Berl). 2013, 227(4):727-39].
The magnet implants mounting and magnetometer assessments were conducted as described previously (Halberstadt et al., Psychopharmacology (Berl). 2013 227(4): 727-739). Data are represented as group means±standard deviation for the entire 60 minutes test session (FIG. 10A) and individual data points per 2 minutes blocks (FIG. 10B). Asterisks indicate statistical significances compared to the control (0 mg/kg).

5-HT2B receptor = target: T3, 5-HT2B receptor (Homo sapiens, UniProt P41595); assay: 5-HT2B Gq dissociation, β-arrestin2 recruitment and Gq-mediated calcium flux in HEK293T cells; assay type: cell-based
T3 construct: expressed in transfected cells; host or cells: HEK293T; Flp-In 293 T-Rex (calcium flux)
T3 sequence (P41595 whole entry): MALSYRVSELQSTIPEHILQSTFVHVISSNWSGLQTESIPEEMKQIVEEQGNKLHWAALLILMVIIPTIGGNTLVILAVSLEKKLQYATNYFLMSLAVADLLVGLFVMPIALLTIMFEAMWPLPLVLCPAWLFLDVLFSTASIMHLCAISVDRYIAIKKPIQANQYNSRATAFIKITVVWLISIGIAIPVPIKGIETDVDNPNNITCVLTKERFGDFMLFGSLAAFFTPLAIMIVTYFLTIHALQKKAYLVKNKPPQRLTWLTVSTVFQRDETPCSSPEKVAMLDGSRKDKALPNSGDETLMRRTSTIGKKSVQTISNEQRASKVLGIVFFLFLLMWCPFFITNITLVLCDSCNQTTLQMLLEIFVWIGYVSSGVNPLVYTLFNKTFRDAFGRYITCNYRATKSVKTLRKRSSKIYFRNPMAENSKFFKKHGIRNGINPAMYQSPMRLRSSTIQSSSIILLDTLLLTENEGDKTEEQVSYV
Method: The activity of the “E559 polymorph” at the 5-HT2B receptor was further assessed by 5-HT2B-mediated Gq dissociation (FIG. 14A), 5-HT2B-mediated 0-arrestin2 recruitment (FIG. 14B) and 5-HT2B Gq-mediated calcium flux assessments (FIG. 14C) using bioluminescence resonance energy transfer (BRET) assay in HEK293T cells FIG. 14A to C, 5-HT refers to serotonin). […] In 5-HT2B antagonist assays, the “E559 polymorph” antagonism was measured by its ability to block 5-HT2B receptor activation by 5-HT.

5-HT4 receptor = target: T4, 5-HT4 receptor (Homo sapiens, UniProt Q13639); assay: G protein dissociation assay; assay type: cell-based; details: FIG. 15
T4 construct: expressed in transfected cells; host or cells: HEK293T

5-HT5A receptor = target: T5, 5-HT5A receptor (Homo sapiens, UniProt P47898); assay: G protein dissociation assay; assay type: cell-based
T5 construct: expressed in transfected cells; host or cells: HEK293T
T5 sequence (P47898 whole entry): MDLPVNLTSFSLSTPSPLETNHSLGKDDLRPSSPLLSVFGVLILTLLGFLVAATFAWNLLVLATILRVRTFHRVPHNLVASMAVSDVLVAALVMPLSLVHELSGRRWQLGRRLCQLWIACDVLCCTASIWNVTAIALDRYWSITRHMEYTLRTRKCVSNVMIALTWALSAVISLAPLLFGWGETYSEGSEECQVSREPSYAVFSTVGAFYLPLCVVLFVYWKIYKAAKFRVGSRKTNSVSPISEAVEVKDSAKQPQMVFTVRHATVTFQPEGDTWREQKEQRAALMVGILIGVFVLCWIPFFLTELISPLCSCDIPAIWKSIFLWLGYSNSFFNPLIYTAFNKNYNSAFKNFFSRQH

5-HT7 receptor = target: T6, 5-HT7 receptor (Homo sapiens, UniProt P34969); assay: G protein dissociation and cAMP accumulation second messenger assays; assay type: cell-based
T6 construct: expressed in transfected cells; host or cells: HEK293T
T6 sequence (P34969 1-445 isoform P34969-2): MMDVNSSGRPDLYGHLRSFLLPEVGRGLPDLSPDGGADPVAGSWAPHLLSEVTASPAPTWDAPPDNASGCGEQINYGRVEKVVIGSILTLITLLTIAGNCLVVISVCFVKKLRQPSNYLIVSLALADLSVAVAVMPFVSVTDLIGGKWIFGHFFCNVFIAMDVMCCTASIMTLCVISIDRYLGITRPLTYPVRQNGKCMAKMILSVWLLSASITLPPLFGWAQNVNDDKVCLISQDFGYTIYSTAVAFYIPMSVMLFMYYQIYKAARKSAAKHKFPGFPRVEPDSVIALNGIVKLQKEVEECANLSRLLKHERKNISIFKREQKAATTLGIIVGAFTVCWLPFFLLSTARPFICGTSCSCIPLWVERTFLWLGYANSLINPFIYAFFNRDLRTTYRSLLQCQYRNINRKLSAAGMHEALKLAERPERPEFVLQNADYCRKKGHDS

5-HT2A receptor [6] = target: T7, 5-HT2A receptor (Homo sapiens, UniProt P28223)
T7 sequence (P28223 whole entry): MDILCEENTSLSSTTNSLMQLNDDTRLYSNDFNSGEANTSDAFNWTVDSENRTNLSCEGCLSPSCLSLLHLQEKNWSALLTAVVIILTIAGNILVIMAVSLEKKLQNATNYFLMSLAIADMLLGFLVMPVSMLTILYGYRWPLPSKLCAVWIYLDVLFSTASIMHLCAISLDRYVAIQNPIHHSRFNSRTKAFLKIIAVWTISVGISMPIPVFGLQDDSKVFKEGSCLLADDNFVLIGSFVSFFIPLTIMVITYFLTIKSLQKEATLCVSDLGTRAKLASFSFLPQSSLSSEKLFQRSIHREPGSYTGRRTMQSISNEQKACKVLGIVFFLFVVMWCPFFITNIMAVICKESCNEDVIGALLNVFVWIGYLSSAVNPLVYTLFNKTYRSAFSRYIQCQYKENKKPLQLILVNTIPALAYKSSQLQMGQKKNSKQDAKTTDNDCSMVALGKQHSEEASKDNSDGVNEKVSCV

5-HT6 = 5-HT6 (Homo sapiens, UniProt P50406); assay: G protein dissociation and cAMP accumulation second messenger assays; assay type: cell-based; set-up: expressed in transfected cells; host or cells: HEK293T
5-HT6, sequence (P50406 whole entry, the tested form may be a part): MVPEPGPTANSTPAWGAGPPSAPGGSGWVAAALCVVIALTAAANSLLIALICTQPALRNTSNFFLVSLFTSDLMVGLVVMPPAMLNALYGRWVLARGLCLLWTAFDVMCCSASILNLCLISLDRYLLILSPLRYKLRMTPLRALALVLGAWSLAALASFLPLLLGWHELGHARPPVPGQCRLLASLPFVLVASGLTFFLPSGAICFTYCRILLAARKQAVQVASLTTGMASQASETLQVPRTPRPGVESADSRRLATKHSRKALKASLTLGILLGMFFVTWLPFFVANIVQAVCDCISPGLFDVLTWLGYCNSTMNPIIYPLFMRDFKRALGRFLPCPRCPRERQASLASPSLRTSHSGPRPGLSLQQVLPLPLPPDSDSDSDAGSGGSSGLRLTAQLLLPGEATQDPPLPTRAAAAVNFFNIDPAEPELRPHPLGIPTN

5-HT2A receptor [7] = target: T7, 5-HT2A receptor; assay: 5-HT2A receptor internalization, NanoBit HiBit-fused 5-HT2A in HEK293T cells; assay type: cell-based; set-up: expressed in transfected cells; host or cells: HEK293T
Method: To assess the ability of the “E559 polymorph” to induce β-arrestin-mediated 5-HT2A receptor internalization in vitro, the loss of surface expression of 5-HT2A receptor was measured using a NanoBit N-terminal HiBit-fused 5-HT2A construct cloned in HEK293T cells (1:15 ratio 5-HT2A: β-arrestin2). In brief, cells were treated with serial dilution of test compounds for 1 hour or a specified time point.

[8] = percentage of the reference ligand-induced maximal response, read-out: Emax

D2 dopamine receptor, sequence (P14416 whole entry): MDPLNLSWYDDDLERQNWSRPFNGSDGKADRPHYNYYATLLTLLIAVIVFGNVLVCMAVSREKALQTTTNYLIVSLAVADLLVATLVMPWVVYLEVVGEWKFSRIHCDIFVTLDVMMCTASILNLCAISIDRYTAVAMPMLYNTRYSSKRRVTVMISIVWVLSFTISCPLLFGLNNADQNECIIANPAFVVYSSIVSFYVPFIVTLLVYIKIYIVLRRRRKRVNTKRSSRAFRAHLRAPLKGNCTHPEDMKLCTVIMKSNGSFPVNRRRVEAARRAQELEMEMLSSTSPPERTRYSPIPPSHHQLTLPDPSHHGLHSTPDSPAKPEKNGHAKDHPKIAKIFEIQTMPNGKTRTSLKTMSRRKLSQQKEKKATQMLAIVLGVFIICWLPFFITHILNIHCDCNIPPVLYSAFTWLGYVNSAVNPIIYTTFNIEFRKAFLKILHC
D3 dopamine receptor, sequence (P35462 whole entry): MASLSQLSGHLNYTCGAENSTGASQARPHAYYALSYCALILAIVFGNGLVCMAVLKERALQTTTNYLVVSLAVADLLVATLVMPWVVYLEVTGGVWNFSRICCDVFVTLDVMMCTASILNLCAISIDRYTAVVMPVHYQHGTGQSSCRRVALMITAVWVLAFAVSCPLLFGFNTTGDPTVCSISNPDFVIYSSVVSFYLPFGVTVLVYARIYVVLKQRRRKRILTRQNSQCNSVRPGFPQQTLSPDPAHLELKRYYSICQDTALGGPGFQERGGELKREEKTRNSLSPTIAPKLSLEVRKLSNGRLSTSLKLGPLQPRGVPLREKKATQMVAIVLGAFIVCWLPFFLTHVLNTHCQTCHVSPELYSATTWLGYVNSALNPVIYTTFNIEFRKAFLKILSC

SMILES: CCN(CC)C(=O)[C@@H]1C=C2c3cccc4[nH]c(Br)c(c34)C[C@H]2N(C)C1 [E559, (5R, 8R)-2-Bromo-9,10-didehydro-N,N-diethyl-6-methylergoline-8-carboxamide hemi-D-tartrate]
- EC50 (D2 dopamine receptor): 0.35 nM
- Emax (D2 dopamine receptor): 77.4%
- EC50 (D3 dopamine receptor): 2.84 nM
- Emax (D3 dopamine receptor): 31.8%
- Kb (D3 dopamine receptor): 7.13 nM
- EC50 (D4 dopamine receptor): 1.22 nM
- Emax (D4 dopamine receptor): 67.3%
- EC50 [1]: 296 nM
- Emax [1]: 28.8%
- Kb [1]: 5190 nM
- Emax [2]: 17.4%
- EC50 [3]: 2.96 nM
- EC50 [4]: 214 nM
- EC50 [5]: 0.04 nM
- Emax [5]: 15.6%
- head-twitch response (HTR) (male C57BL/6J mice; IP, E559 polymorph 0.1-10 mg/kg, LSD 0.1 mg/kg, 60 minutes): negative in HTR at all doses tested; also recorded: did not induce HTR above baseline at any tested dose
- antagonism of 5-HT-mediated activation of 5-HT2B (5-HT2B receptor; Gq dissociation, β-arrestin2 recruitment, calcium flux): antagonism was observed in blocking 5-HT-mediated activation of the 5-HT2B receptor in all three assays
- agonism at 5-HT2B (5-HT2B receptor; Gq dissociation, β-arrestin2 recruitment, calcium flux, listed as E559 polymorph): does not show the agonism seen with LSD; also recorded: inactive as an agonist at the 5-HT2B receptor
- functional activity at 5-HT4 (5-HT4 receptor): lack potent agonist activity at 5-HT4 receptor
- functional activity at 5-HT5A (5-HT5A receptor; FIG. 15): antagonizes this receptor subtype
- functional activity at 5-HT7 (5-HT7 receptor; FIG. 15, FIG. 16A/B, listed as E559 polymorph): act as potent antagonist and inverse agonists; also recorded: exhibits significantly greater inverse agonism than LSD
- β-Arrestin2 recruitment at the 5-HT2A receptor (5-HT2A receptor [6]; percentage of the 5-HT-induced maximal response): weak recruiter of β-Arrestin2
- functional activity at 5-HT6 (5-HT6; FIG. 15, FIG. 16A/B): acts as a very potent partial agonist
- internalization of the 5-HT2A receptor (loss of surface expression) (5-HT2A receptor [7]; single 1 hour treatment): only exhibits weak internalization of the 5-HT2A receptor

SMILES: CCN(CC)C(=O)[C@@H]1C=C2c3cccc4[nH]cc(c34)C[C@H]2N(C)C1 [LSD, lysergic acid diethylamide, reference compound]
- EC50 (D2 dopamine receptor): 2.17 nM
- Emax (D2 dopamine receptor): 86%
- EC50 (D3 dopamine receptor; agonist mode, read-out: EC50): 7.57 nM
- Emax (D3 dopamine receptor; [8]): 74.5%
- EC50 (D4 dopamine receptor; agonist mode, read-out: EC50): 4.03 nM
- Emax (D4 dopamine receptor; [8]): 91.9%
- EC50 ([1]; agonist mode, read-out: EC50): > 10000 nM
- Emax [1, 8]: 21.2%
- EC50 ([2]; agonist mode): 0.09 nM
- Emax [2, 8]: 15%
- EC50 ([3]; agonist mode, read-out: EC50): 211 nM
- EC50 ([4]; agonist mode, read-out: EC50): > 10000 nM
- EC50 ([5]; agonist mode, read-out: EC50): 454 nM
- head-twitch response (HTR) (male C57BL/6J mice; mouse, in vivo): elicited a strong HTR
- agonism at 5-HT2B (5-HT2B receptor): shows potent agonism of the 5-HT2B receptor; also recorded: an agonist of 5-HT2B
- functional activity at 5-HT4 (5-HT4 receptor): lack potent agonist activity at 5-HT4 receptor
- functional activity at 5-HT5A (5-HT5A receptor): acts as a partial agonist
- functional activity at 5-HT7 (5-HT7 receptor): act as potent antagonist and inverse agonists
- β-Arrestin2 recruitment at the 5-HT2A receptor (5-HT2A receptor [6]): strong recruiters of β-Arrestin2
- functional activity at 5-HT6 (5-HT6): acts as a very potent partial agonist
- internalization of the 5-HT2A receptor (loss of surface expression) (5-HT2A receptor [7]): potent internalization
